Our source for the IC50 values is ChEMBL document CHEMBL3108766, “Cladosins A-E, hybrid polyketides from a deep-sea-derived fungus, Cladosporium sphaerospermum” (J Nat Prod, 2014).

This test relates to Influenza A virus. The experiment in a line: Antiviral activity against influenza A virus H1N1 infected in MDCK cells assessed as inhibition of virus-induced cytopathic effect after 48 hrs by crystal violet staining assay. Format: functional, organism-based. Background: Protection from cytopathic effect is a common read-out in antiviral testing.

For the compound `NC(=O)c1ncn([C@@H]2O[C@H](CO)[C@@H](O)[C@H]2O)n1` [RIBAVIRIN], the IC50 came out at 131 µM.

For `CC(C)=C1NC(=O)/C(=C(N)\C=C\C[C@H](C)O)C1=O`, the IC50 amounted to 276 µM.

By IC50 is commonly meant the concentration needed to halve the response being measured.
